{"source": "patent US20250000881A1", "about": "“TREATMENT OF TREATMENT RESISTANT […] PSILOCYBIN” (COMPASS […], priority 2021, published 2025)", "key": {"[1]": {"system": "adult subjects with TRD", "assay": "Phase 2b trial in TRD: participants starting new treatment for depression", "type": "in vivo, human", "experimental": "All subjects were asked to remain off their antidepressant medications for at least 3 weeks following the psilocybin session until the primary endpoint assessment, or longer. Rescue medications were allowed and described in the Rescue Medications section below. Subjects who restarted their antidepressant medications during the first 3 weeks after the psilocybin treatment administration were assessed for reasons of resuming their medications and followed until 12 weeks post-psilocybin administration."}, "[2]": {"system": "adult subjects with TRD", "assay": "Phase 2b trial in TRD: Generalised Anxiety Disorder-7 item scale (GAD-7)", "type": "in vivo, human", "conditions": "25 mg vs 1 mg group, week 3", "experimental": "(§1) Other objectives were to evaluate the effects of psilocybin on quality of life and wellbeing, functioning and associated disability, cognitive function, and anxiety compared to 1 mg psilocybin on: • (a) Quality of life in subject EuroQoL (EQ)-5 dimension-3 level scale (EQ-5D-3L) score change from Baseline to week 3. This will also be assessed at week 12. This assessment was not mandatory. • (b) Quality of life in caregiver EQ-5D-3L score change from Baseline to week 3. This was assessed at week 12. • (c) Functioning and associated disability in the Sheehan Disability Scale (SDS) score change from Baseline to week 3. This was also assessed at week 12. • (d) Cognitive function as measured by the Digit Symbol Substitution Test (DSST) score change from baseline to week 3. This was assessed at day 1 and week 12. • (e) Level of anxiety as measured using the change in Generalised Anxiety Disorder 7 item Scale (GAD-7) total score change from baseline to week 3. This was assessed at week 12. • (f) Subject determined level of depression as measured using the change in Quick Inventory of Depressive Symptomatology Self-Rated (QIDS-SR-16) total score from Baseline to week 3. […] This was assessed at week 12. • (h) To evaluate the impact of different psilocybin doses on real life functional activity estimated from passive data streams collected on a mobile app on subjects' mobile phones. […]"}, "[3]": {"system": "adult subjects with TRD", "assay": "Phase 2b trial in TRD: QIDS-SR-16 self-reported depression", "type": "in vivo, human", "conditions": "25 mg vs 1 mg group, week 3", "experimental": "as §1"}, "[4]": {"system": "adult subjects with TRD", "assay": "Phase 2b trial in TRD: Work and Social Adjustment Scale (WSAS)", "type": "in vivo, human", "conditions": "25 mg vs 1 mg, week 3", "experimental": "as §1"}, "[5]": {"system": "adult subjects with TRD", "assay": "Phase 2b trial in TRD: Digit Symbol Substitution Test (DSST)", "type": "in vivo, human", "conditions": "25 mg vs 1 mg groups, week 3", "experimental": "as §1"}, "[6]": {"system": "participants with TRD from Example 2", "assay": "Long term follow-up study: time to any depressive event (KM quartiles)", "type": "in vivo, human", "experimental": "The following example is a long term follow up of study of a sustained responder population from Example 2. 58 participants from Example 2 were selected for a long term 52 week follow up study. Of the 58 patients, 22 received a 25 mg dose of psilocybin, 19 received a 10 mg dose of psilocybin, and 17 received a 1 mg dose of psilocybin. […] None of the patients in this study received treatment for depression before their week 12 MADRS visit in Example 2. Patients were analyzed for a change in MADRS total score from Baseline to 12, 16, 20, 24, 28, 40, and 52 weeks.\nThe primary endpoint of this study was to determine the median time to a depressive event after administration of psilocybin. The depressive event includes: • Initiation of new antidepressant treatment (first new antidepressant treatment in time period only); • Hospitalization due to depression/suicidality; • Suicide attempt, prevention of an imminent suicide attempt, or completed suicide; • Increased suicidality measured by worsening on MADRS item 10; • Active suicidal ideation measured by the C-SSRS; • MADRS worsening; and • Discontinuation for adverse event or lack of efficacy."}, "[7]": {"assay": "Solubility in water"}}, "note": "“And” between values parts separate entries of the source, which are not always exact repeats. Equal entries are not always repeated."}
{"smiles": "CN(C)CCc1c[nH]c2cccc(OP(=O)(O)O)c12", "note": "[COMP360, psilocybin]", "values": [{"measurement": "Participants started new treatment for depression", "setting": "[1]; 1 mg (N = 79), Day 2", "value": 0, "unit": "n"}, {"measurement": "Participants started new treatment for depression", "setting": "[1]; 10 mg (N = 75), Day 2", "value": 0, "unit": "n"}, {"measurement": "Participants started new treatment for depression", "setting": "[1]; 25 mg (N = 79), Day 2", "value": 0, "unit": "n"}, {"measurement": "Participants started new treatment for depression", "setting": "[1]; 25 mg (N = 79), Week 1", "value": 0, "unit": "n"}, {"measurement": "Participants started new treatment for depression", "setting": "[1]; Overall (N = 233), Day 2", "value": 0, "unit": "n"}, {"measurement": "GAD-7 total score, least squares mean (95% confidence intervals) treatment difference", "setting": "[2]", "value": "−1.79 (−3.35, −0.23)"}, {"measurement": "QIDS-SR-16 total score, least squares mean treatment difference (95% confidence intervals)", "setting": "[3]", "value": "−2.78 (−4.62, −0.95)"}, {"measurement": "WSAS treatment difference", "setting": "[4]", "value": "−5.11"}, {"measurement": "DSST least squares mean treatment difference", "setting": "[5]", "value": 1.32}, {"measurement": "Time to any depressive event, KM Q1, estimate (95% CI)", "setting": "[6]; 1 mg (N = 17)", "value": "6.0 (2.0, 14.0) days"}, {"measurement": "Time to any depressive event, KM Q2 (median), estimate (95% CI)", "setting": "[6]; 1 mg (N = 17)", "value": "21 days and 21.0 (3.0, 78.0) days"}, {"measurement": "Time to any depressive event, KM Q3, estimate (95% CI)", "setting": "[6]; 1 mg (N = 17)", "value": "78.0 (21.0, —) days"}, {"measurement": "Time to any depressive event, KM Q1, estimate (95% CI)", "setting": "[6]; 10 mg (N = 19)", "value": "19.0 (2.0, 41.0) days"}, {"measurement": "Time to any depressive event, KM Q2 (median), estimate (95% CI)", "setting": "[6]; 10 mg (N = 19)", "value": "43 days and 43.0 (19.0, 142.0) days"}, {"measurement": "Time to any depressive event, KM Q1, estimate (95% CI)", "setting": "[6]; 25 mg (N = 22)", "value": "24.0 (2.0, 132.0) days"}, {"measurement": "solubility", "setting": "[7]", "value": "~15", "unit": "mg/mL"}]}
